# Laboratory results reported in BindingDB's records for doi:10.1021/jm0408316 (University of Genoa, 2005).
# Structures can show the parent of a compound that is named as a salt.
# Target: not listed separately
# Test: Inhibition of benzylamine binding to Benzylamine oxidase of porcine serum
row,SMILES,IC50 [µM]
1,NCc1c(OCCO)cncc1OCCO [2-{[4-(aminomethyl)-5-(2-hydroxyethoxy)pyridin-3-yl]oxy}ethanol dihydrochloride trihydrate],3.2
2,"NCc1ccncc1N(C1CCCC1)C1CCCC1 [4-(aminomethyl)-N,N-dicyclopentylpyridin-3-amine dihydrochloride]",100
3,NCc1ccncc1NCC1CCCCC1 [4-(aminomethyl)-N-(cyclohexylmethyl)pyridin-3-amine dihydrochloride hydrate],5.6
4,NCc1ccncc1NC1CCCCCC1 [4-(aminomethyl)-N-cycloheptylpyridin-3-amine dihydrochloride hydrate],79
5,NCc1ccncc1NC1CCCC1 [4-(aminomethyl)-N-cyclopentylpyridin-3-amine dihydrochloride],16
6,NCc1ccncc1NC1CC1 [4-(aminomethyl)-N-cyclopropylpyridin-3-amine dihydrochloride hydrate],> 100
7,NCc1ccncc1N [4-(aminomethyl)pyridin-3-amine dihydrochloride],16
8,NCc1c(OCCCCO)cncc1OCCCCO [4-{[4-(aminomethyl)-5-(4-hydroxybutoxy)pyridin-3-yl]oxy}butan-1-ol dihydrochloride],0.15
9,CCOc1cncc(OCc2ccccc2)c1CN [[3-(benzyloxy)-5-ethoxypyridin-4-yl]methylamine dihydrochloride],5

# Continued, values first:
row,IC50 [µM],SMILES
1,1.6,CC(C)(C)Sc1cncc(SC(C)(C)C)c1CN
2,0.13,CCSc1cncc(SCC)c1CN
3,0.44,CNc1cncc(N(C)C)c1CN [4-(aminomethyl)-5-(dimethyl-lambda~5~-azanyl)-N-methylpyridin-3-amine dihydrochloride dihydrate]
4,350,CCCNc1cncc(N(C)CCC)c1CN [4-(aminomethyl)-5-[methyl(propyl)-lambda~5~-azanyl]-N-propylpyridin-3-amine dihydrochloride]
5,0.02,CCNc1cncc(N(C)CC)c1CN [4-(aminomethyl)-N-ethyl-5-[ethyl(methyl)-lambda~5~-azanyl]pyridin-3-amine dihydrochloride]
6,2,CCNc1cnccc1CN [4-(aminomethyl)-N-ethylpyridin-3-amine dihydrochloride]
7,> 0.1,CC(C)Nc1cncc(N(C)C(C)C)c1CN [4-(aminomethyl)-N-isopropyl-5-[isopropyl(methyl)-lambda~5~-azanyl]pyridin-3-amine dihydrochloride]
8,100,CC(C)Nc1cnccc1CN [4-(aminomethyl)-N-isopropylpyridin-3-amine dihydrochloride]
9,1.7,CNc1cncc(NC)c1CN [4-(aminomethyl)-N-methyl-5-(methyl-lambda~5~-azanyl)pyridin-3-amine dihydrochloride]
10,8,CNc1cnccc1CN [4-(aminomethyl)-N-methylpyridin-3-amine dihydrochloride]
11,0.17,"CCOc1cncc(OCC)c1CN [(3,5-diethoxypyridin-4-yl)methylamine dihydrochloride]"
12,> 100,CNc1ccccc1CN [N-[2-(aminomethyl)phenyl]-N-methylamine dihydrochloride]

# Target: Diamine oxidase (Sus scrofa)
# Test: Inhibition of putrescine binding to against Diamine oxidase of porcine kidney
row,IC50 [µM],SMILES
1,> 1000,CC(C)(C)Sc1cncc(SC(C)(C)C)c1CN
2,0.061,CNc1cncc(N(C)C)c1CN [4-(aminomethyl)-5-(dimethyl-lambda~5~-azanyl)-N-methylpyridin-3-amine dihydrochloride dihydrate]
3,1,CC(C)Nc1cncc(N(C)C(C)C)c1CN [4-(aminomethyl)-N-isopropyl-5-[isopropyl(methyl)-lambda~5~-azanyl]pyridin-3-amine dihydrochloride]
4,0.12,CNc1cncc(NC)c1CN [4-(aminomethyl)-N-methyl-5-(methyl-lambda~5~-azanyl)pyridin-3-amine dihydrochloride]
